Measurements reported in PMC6973269, “Lipidated Stapled Peptides Targeting the Acyl Binding Protein UNC119” (Chembiochem, 2019).
Where a SMILES comes first, the peptide text is derived from it. Bridges are numbered along the chain shown (N, C = ends). [ ]: non-standard residue; d: D form. The star is where a group is joined. Myristoyl = CCCCCCCCCCCCCC(=O)*; S5 = C=CCCC[C@](C)(N)C(=O)O

Columns and labels:
UNC119a = biological target: T1, UNC119a (Homo sapiens, UniProt Q13432); test: Fluorescence anisotropy binding assay, UNC119a; conditions: 5 nM fluorescein-labeled peptide, 4 h at room temperature, 30 mM Tris pH 7.5, 100 mM NaCl, 1 mM TCEP, 0.01% Chaps, triplicate, error 1 σ
T1 construct: made in house; host or cells: E. coli
Description: (§1) Fluorescence anisotropy assay
(§2) UNC119a/b was serially diluted in a buffer containing 30 mM Tris (pH 7.5), 100 mM NaCl, 1 mM TCEP and 0.01% Chaps (assay buffer), treated with 5 nM fluorescein-labeled peptides and incubated for 4 h at room temperature. Binding assays were performed in 384-well, small volume, black flat-bottom, non-binding plates (Greiner). Fluorescence polarization values (λex = 470 nm, λem = 525 nm) were determined using a Safire II plate reader (Tecan) at room temperature. All measurements were performed in triplicates. After correction for changes in fluorescence intensity upon binding, the fluorescence anisotropy data were converted into fraction bound (equation 1) of the FITC- labeled peptide and fitted via non-linear regression in Prism 5.0 (Graphpad).[1] fraction bound = A−Afree (1)
(§3) Afree: anisotropy of free fluorophore
(§4) Abound: anisotropy of bound fluorophore
(§5) Q: change in fluorescence intensity between free and bound state
(§6) Protein expression and purification
(§7) UNC119a and UNC119b were expressed in E. coli according to the previously reported procedures.[2] […]
(§8) Additionally, HeLa cells were supplemented with penicillin and streptomycin. All cultures were routinely tested and found to be free of mycoplasma contamination.

UNC119b = biological target: T2, UNC119b (Homo sapiens, UniProt A6NIH7); test: Fluorescence anisotropy binding assay, UNC119b; conditions: 5 nM fluorescein-labeled peptide, 4 h at room temperature, 30 mM Tris pH 7.5, 100 mM NaCl, 1 mM TCEP, 0.01% Chaps, triplicate, error 1 σ
T2 construct: made in house; host or cells: E. coli
Description: as §1, §2, §3, §4, §5, §6, §7, §8

HeLa cells [1] = test: Cellular uptake of fluorescently labeled peptides by flow cytometry; type: cell-based, human; conditions: fluorescently labeled peptide, 5 μM, 90 min, flow cytometry fluorescence intensity, % of levels observed for R8
Description: As the knock‐down of UNC119a was reported to increase the number of cytokinetic and binucleated cells,13 we investigated the influence of UNC119‐binding peptides on cell morphology. Initially, the uptake of fluorescently labeled peptide 4 by HeLa cells was investigated by using flow cytometry (c=5 μM for 90 min, Figure S4 and Table S2). These measurements show cellular uptake of 4 reaching about 50 % of the levels observed for cell‐penetrating peptide octa‐arginine (R8).30 Considering that this cellular uptake was sufficient, we tested the effect of unlabeled peptide 4 on cell morphology. As a reference, we used nocodazole (NC), which inhibits tubulin polymerization thereby inducing cell‐cycle arrest in the G2/M phase that results in cells with increased DNA content because chromosomal DNA has already been duplicated. HeLa and mouse fibroblast L cells were incubated with different peptide concentrations for 72 h prior to quantification of DNA content by using flow cytometry.
Supporting Figure S4. Cellular uptake of fluorescently labeled peptides as determined by fluorescence
intensities using flow cytometry in HeLa cells (90 min incubation at c(peptide) = 5 µM).
(1 picture or pasted object on this page, not shown here)

MDA-MB-231 cells [2] = test: Subcellular (nucleus, cytosol) peptide concentration by quantitative UPLC-MS; type: in vitro ADME; conditions: for Peptide concentration, cytosol, 0.5 h / Peptide concentration, nucleus, 0.5 h / Peptide concentration, cytosol, 72 h / Peptide concentration, nucleus, 72 h: unlabeled peptide 25 μM, MDA-MB-231 cells, subcellular fractionation, LLOQ given if not detected; for Peptide concentration, cytosol, 0.5 h / Peptide concentration, nucleus, 0.5 h: 0.5 h incubation; for Peptide concentration, cytosol, 72 h / Peptide concentration, nucleus, 72 h: 72 h incubation
Description: (§9) Total intracellular and sub cellular concentrations
(§10) […] cells were cultured DMEM (high glucose) supplemented with 10% FCS and 1% Glutamax.
(§11) When 80% confluency cell culture media was removed from each flask and new media containing 25 µM of peptides was added and incubated with cells for 30 min and 72 h. Following peptide incubation, cells were washed twice with PBS, trypsinized and pelleted. Pellets where lysed in RIPA buffer (Perkin Elmer) for total […]
(§12) lysis; or CelLytic NuCLEAR Extraction Kit (SIGMA) for subcellular fractionation. Total protein quantification BCA (Pierce) was performed prior to MS analysis to normalize sample data.
(§13) Total and sub-cellular quantities of peptides 4, 10 and R8 were quantified[3] in lysates by UPLC-MS utilising a Waters Xevo TQ-XS (WBA0259) and a Waters Acquity UPLC system consisting of, Sample Manager (M16UFL953M), Acquity PDA (F17UPD457A), Column Oven (E17CMP703G) and Binary Solvent Manager (E17BUR621G). For peptides 4 and 10 analytical UPLC separation was performed using a Waters CSH C18 1.7 µm, 2.1 x 50 mm column. A gradient was utilized of 97% A to 5% in 4mins, 0.5 min hold, 5% A to 97% in 0.5mins, where A = 0.1% HCOOH (aq) and B = 0.1% HCOOH in MeCN at a flow rate of 0.75 mL/min (Supporting Figure S7). Compound R8 was analyzed in HILIC mode using a Waters BEH Amide 1.7 µm, 2.1 x 100 mm column with a gradient of 30% A to 95% in 1.5 mins, 1 min hold, 95% A to 30% in 1.5 min, 1 min hold at 0.65 mL/min. The Waters TQ-XS was operated in +ve ion Electrospray (ESI) mode with the optimized transitions for PC658-AC, PC658-MYR and Ac-R8 (Supporting Table S3 and Figure S8). The chromatograms at each transition were extracted, smoothed and integrated to give the standard curve. Chromatograms of the samples were treated similarly and by linear regression (1/x) an in-cell concentration was established in the re-suspended cell lysate using the Waters MassLynx TargetLynxTM product (Supporting Tables S4 – S7).

MDA-MB-231 cells [3] = test: Total intracellular peptide concentration by quantitative UPLC-MS; type: in vitro ADME; conditions: for Total drug content, pMols/million cells / Total drug content, Measured Conc: 25 µM compound, 0.5 h; for Total drug content, pMols/million cells: total lysis; for Total drug content, pMols/million cells / Total drug content, Measured Conc / Peptide concentration, total cell, 0.5 h: UPLC-MS; for Fold higher total cell uptake than peptide 10: 25 μM, 30 min, quantitative mass spectrometry; for Fold higher total cell uptake than peptide 10 / Peptide concentration, total cell, 0.5 h: MDA-MB-231 cells; for Total drug content, Measured Conc: concentration in re-suspended cell lysate, dilution factor 10; for Peptide concentration, total cell, 0.5 h: unlabeled peptide 25 μM, 0.5 h incubation, RIPA total lysis, LLOQ given if not detected
Description: as §9, §10, §11, §12, §13

HeLa cells [4] = test: DNA content (4N) by propidium iodide staining and flow cytometry, HeLa cells; type: cell-based, human; conditions: control compound 1 µM (maximum tolerated concentration), 24 h, flow cytometry, triplicate, error 1 σ
Description: (§14) 3 x10^4 L or Hela cells were seeded per well in 6–well plates and grown overnight. The following day, cells were treated with the indicated compound concentrations for 72 h or with nocodazole as a control for 24 h). Cells were washed, detached using trypsin and re-suspended in phosphate-buffered saline (PBS).
(§15) Cells were centrifuged at 200xg for 5 min at room temperature (RT) and washed again. Cells were then fixed with 70% ethanol and stained with propidium iodide solution (12 µg/mL propidium iodide (Sigma, Germany), 0.1% (v/v) Triton X-100 and 100 µg/mL DNase-free RNase A (Sigma, Germany) in PBS) for 30 min at room temperature. Cell suspensions were filtered to FACS tubes through a nylon mesh before analysis.
(§16) 10,000 cells for each sample were sorted by the BD LSRII analyzer (Becton Dickinson, USA). FlowJo 6.2.1 software was used for quantification and analysis of all data. For every analysis, FSC and SSC (forward and side scatter, respectively) gating was performed to exclude doublets and debris. In addition, cells were gated for singlets (PI-W vs. PI-A). […]

mouse fibroblast L cells = test: DNA content (4N) by propidium iodide staining and flow cytometry, L cells; type: cell-based; conditions: control compound 1 µM (maximum tolerated concentration), 24 h, flow cytometry, triplicate, error 1 σ
Description: as §14, §15, §16

HeLa cells [5] = test: Fluorescence microscopy of cell morphology (tubulin antibody, DAPI); type: cell-based, human; conditions: 1 μM, 24 h, fixation, anti-tubulin antibody and DAPI staining
Description: 2x10^4 Hela cells were seeded per well in a 24-well plate on cover slips and incubated overnight. Next day, cells were treated with different concentrations of the peptides or DMSO, nocodazole and cytochalasin D as controls and incubated at 37°C and 5% CO2 for the indicated times (72 h or 24 h). Cells were then fixed using 3.7% paraformaldehyde for 15 min at room temperature followed by permeabilization using 0.1% Triton X-100 in PBS for 15 min. Blocking was performed in 2% BSA in PBS containing 0.1% Tween 20 for 1 h at room temperature. Samples were incubated with the indicated primary antibodies (anti-tubulin primary antibody conjugated to FITC) in the blocking solution overnight at 4°C. After washing, cells were incubated with 1 µg/mL DAPI in blocking solution for 1 h at room temperature, followed by three washes with PBS.

[6] = 25 µM compound, 0.5 h, concentration in lysate
[7] = 25 µM compound, 72 h, concentration in lysate

T2 sequence (A6NIH7 whole entry, species assumed): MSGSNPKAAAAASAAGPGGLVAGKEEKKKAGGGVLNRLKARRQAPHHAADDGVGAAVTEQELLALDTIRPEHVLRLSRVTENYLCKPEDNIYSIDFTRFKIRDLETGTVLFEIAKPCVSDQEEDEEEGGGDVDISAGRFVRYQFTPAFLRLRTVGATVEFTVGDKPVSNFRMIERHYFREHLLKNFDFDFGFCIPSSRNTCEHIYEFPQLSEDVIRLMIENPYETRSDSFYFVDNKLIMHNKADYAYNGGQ

SMILES	Kd (UNC119a)	Kd (UNC119b)	Peptide concentration, cytosol, 0.5 h (MDA-MB-231 cells [2])	Peptide concentration, nucleus, 0.5 h (MDA-MB-231 cells [2])	Peptide concentration, cytosol, 72 h (MDA-MB-231 cells [2])	Peptide concentration, nucleus, 72 h (MDA-MB-231 cells [2])	Total drug content, pMols/million cells (MDA-MB-231 cells [3])	Fold higher total cell uptake than peptide 10 (MDA-MB-231 cells [3])	Total drug content, Measured Conc (MDA-MB-231 cells [3])	Peptide concentration, total cell, 0.5 h (MDA-MB-231 cells [3])	other results
CCCCCCCCCCCCCC(=O)NCC(=O)N[C@@H](C)C(=O)NCC(=O)N[C@@H](C)C(=O)N[C@@H](CO)C(=O)N[C@@H](C)C(=O)N[C@@H](CCC(=O)O)C(=O)N[C@@H](CCC(=O)O)C(=O)N[C@@H](CCCCN)C(=O)N[C@@H](Cc1c[nH]cn1)C(=O)N[C@@H](CCCCN)C(N)=O [Peptide 1] (Myristoyl-GAGASAEEKHK-NH2)	7.4 nM	11.2 nM	–	–	–	–	–	–	–	–	–
CCCCCCCCCCCCCC(=O)NCC(=O)N[C@@H](C)C(=O)NCC(=O)N[C@@H](C)C(=O)N[C@@H](CO)C(=O)N[C@@]1(C)CCCC=CCCC[C@@](C)(C(=O)N[C@@H](CCCCN)C(N)=O)NC(=O)[C@H](CCCCN)NC(=O)[C@H](CCC(=O)O)NC(=O)[C@H](CCC(=O)O)NC1=O [Peptide 4] (Myristoyl-GAGAS[S5]EEK[S5]K-NH2; staple 6-10)	5.5 nM	63.2 ± 14 nM	<0.001 pmol per 10^6 cells	0.22 pmol per 10^6 cells	0.01 pmol per 10^6 cells	0.45 pmol per 10^6 cells	59.9 pMols/million cells	more than 100 fold	155 nM	60 pmol per 10^6 cells	Cellular uptake relative to octa-arginine (R8) (HeLa cells [1]): about 50%
CC(=O)N[C@@H](CCCNC(=N)N)C(=O)N[C@@H](CCCNC(=N)N)C(=O)N[C@@H](CCCNC(=N)N)C(=O)N[C@@H](CCCNC(=N)N)C(=O)N[C@@H](CCCNC(=N)N)C(=O)N[C@@H](CCCNC(=N)N)C(=O)N[C@@H](CCCNC(=N)N)C(=O)N[C@@H](CCCNC(=N)N)C(N)=O [R8]	–	–	0.58 pmol per 10^6 cells	0.56 pmol per 10^6 cells	0.65 pmol per 10^6 cells	0.64 pmol per 10^6 cells	51.7 pMols/million cells	more than 100 fold	108 nM	52 pmol per 10^6 cells	Sub-cellular drug content, pMols/million cells, Cytoplasm, 0.5 h (MDA-MB-231 cells [2]; 25 µM compound, 0.5 h): 0.584 pMols/million cells; Sub-cellular drug content, pMols/million cells, Nuclear, 0.5 h (MDA-MB-231 cells [2]; 25 µM compound, 0.5 h): 0.563 pMols/million cells; Sub-cellular drug content, Measured Conc, Cytoplasm, 0.5 h (MDA-MB-231 cells [2]; [6]): 3.59 nM; Sub-cellular drug content, Measured Conc, Nuclear, 0.5 h (MDA-MB-231 cells [2]; [6]): 6.91 nM; Sub-cellular drug content, pMols/million cells, Cytoplasm, 72 h (MDA-MB-231 cells [2]; 25 µM compound, 72 h): 0.651 pMols/million cells; Sub-cellular drug content, pMols/million cells, Nuclear, 72 h (MDA-MB-231 cells [2]; 25 µM compound, 72 h): 0.638 pMols/million cells; Sub-cellular drug content, Measured Conc, Cytoplasm, 72 h (MDA-MB-231 cells [2]; [7]): 2.92 nM; Sub-cellular drug content, Measured Conc, Nuclear, 72 h (MDA-MB-231 cells [2]; [7]): 5.73 nM
COC(=O)Nc1nc2ccc(C(=O)c3cccs3)cc2[nH]1 [nocodazole]	–	–	–	–	–	–	–	–	–	–	DNA-content 4N, HeLa cells (HeLa cells [4]): 68.6 ±4.2%; DNA-content 4N, HeLa cells (HeLa cells [4]; listed as NC): increased numbers of cells with doubled DNA content; DNA-content 4N, L cells (mouse fibroblast L cells): 75.4 ± 15.0%; DNA-content 4N, L cells (mouse fibroblast L cells; listed as NC): increased numbers of cells with doubled DNA content; Effect on HeLa cell morphology (HeLa cells [5]): deformation of the tubulin network
